Here are results for one compound from PMC8512560, “Design, Synthesis, and Antipoliferative Activities of Novel Substituted Imidazole-Thione Linked Benzotriazole Derivatives” (Molecules, 2021).

Values joined by “and” are separate entries in the source; they are usually repeats but may differ in a detail not shown here. Equal entries are not always repeated.

One test has as its system bovine brain tubulin. The experiment in a line: Tubulin polymerization assay (turbidimetric, kit BK006). Type of test: biochemical. Conditions: read-out: Anti-Tubulin Activity IC50 ± SD (inhibition of tubulin polymerization). The method, then: The assembly of purified bovine tubulin was monitored using a kit, BK006, purchased from Cytoskeleton Inc., (Denver, CO, USA). The assay was carried out in accordance with the manufacturer’s instructions using the standard assay conditions. Briefly, purified ([…]) in a buffer consisting of 80 mM PIPES (pH 6.9), 0.5 mM EGTA, 2 mM MgCl2, 1 mM GTP and 10% glycerol was incubated at 37 °C in the presence of either vehicle (2% (v/v) ddH2O), CA-4, benzotriazole compounds. Light was scattered proportionally to the concentration of polymerized microtubules in the assay. Therefore, the tubulin assembly was monitored turbidimetrically at 340 nm in a Spectramax 340 PC spectrophotometer (Molecular Devices, Sunnyvale, CA, USA). The concentration that inhibits tubulin polymerization by 50% (IC50) was determined using area under the curve (AUC). The AUC of the untreated controls were considered as 100% polymerization. The IC50 value for each compound was computed using GraphPad Prism Software.

The test system of test [1] is MCF-7 human breast cancer cell line. The experiment in a line: MTT viability assay, MCF-7. Type of test: cell-based. Conditions: Homo sapiens, MCF7, 72 h, mean ± SD of three independent experiments, read-out: Antiproliferative Activities IC50, MCF-7. The method, then:
(§1) All the human tumour cell lines MCF-7, HL-60, HCT-116, and HUVEC were cultured in Dulbecco’s Modified Eagle’s Medium (DMEM) with 10% fetal bovine serum, 2 mM L-glutamine and 100 µg/mL penicillin/streptomycin. Cells were maintained at 37 °C in 5% CO2 in a humidified incubator. All cells were sub-cultured three times/week by trypsinization using TrypLE Express (1X).
(§2) The Benzotriazole compounds were evaluated for antiproliferative effect using the MTT viability assay of various cancer cell lines (MCF-7, HCT-116 and HL-60) and the normal human umbilical vein endothelial cell line (HUVEC) to calculate the relative IC50 values for each compound. Cells were seeded in triplicate in 96-well plates at a density of 10 × 10^3 cells/mL in a total volume of 200 µL per well. 0.1% of DMSO was used as a vehicle control. After this time, they were treated with 2 µL test compound which had been pre-prepared as stock solutions in ethanol to furnish the concentration range of study, 10 nM to 100 µM, and re-incubated for a further 72 h. The culture medium was then removed, and the cells washed with 100 µL phosphate buffered saline (PBS) and 50 µL MTT added, to reach a final concentration of 1 mg/mL MTT added. Cells were incubated for 2 h in darkness at 37 °C. At this point solubilisation was begun through the addition of […] DMSO and the cells maintained at room temperature in darkness for 20 min to ensure thorough colour diffusion before reading the absorbance. Plates were incubated for 72 h at 37 °C + 5% CO2. The MTT (5 mg/mL in PBS) was added and incubated for another 4 h, and the optical density was detected with a microplate reader at 570 nm. Results were expressed as percentage viability relative to vehicle control (100%). Dose response curves were plotted and IC50 values (concentration of drug resulting in 50% reduction in cell survival) were obtained using the commercial software package Prism (GraphPad Software, Inc., La Jolla, CA, USA). All the experiments were repeated in at least three independent experiments.

Test [2] deals with HL-60 human leukemia cancer cell line. The test can be described thus: MTT viability assay, HL-60. Format: cell-based. Conditions: Homo sapiens, HL-60, 72 h, mean ± SD of three independent experiments, read-out: Antiproliferative Activities IC50, HL-60. How it is done:
as §1, §2

Test [3] deals with HL-60 cells. The experiment in a line: Cell cycle analysis by PI flow cytometry. Format: cell-based, human. Conditions: 50 nM. The method, then: HL-60 cells were seeded at a density of 1 × 10^5 cells/well in 6-well plates and treated with CA-4 and compound BI9 (1 µM) for 48 and 72 h. The cells were collected by trypsinization and centrifuged at 800× g for 15 min. Cells were washed twice with ice-cold PBS and fixed in ice-cold 70% ethanol overnight at −20 °C. Fixed cells were centrifuged at 800× g for 15 min and stained with 50 μg/mL of PI, containing 50 μg/mL of DNase-free RNase A, at 37 °C for 30 min. The DNA content of cells (10,000 cells/experimental group) was analysed by flow cytometer at 488 nm using a FACSCalibur flow cytometer (BD Biosciences, San Jose, CA, USA) and all data were recorded and analysed using the CellQuest Software (Becton-Dickinson).

Test [4] relates to HL-60 cells. The test can be described thus: Annexin V/PI apoptotic assay by flow cytometry. Format: cell-based, human. Conditions: BI9 1 µM, CA-4 concentration not given, control 1.6%. How it is done: Apoptotic cell death was detected by flow cytometry using Annexin V and propidium iodide (PI). HL-60 Cells were seeded in 6 well plated at density of 1 × 10^5 cells/mL and treated with vehicle (0.1% (v/v) EtOH), positive control (CA-4) or compound BI9 (1 µM) for 48 and 72 h. Cells were then harvested and prepared for flow cytometric analysis. Cells were washed in 1X binding buffer ([…] binding buffer: 0.1M HEPES, pH 7.4; 1.4 M NaCl; 25 mM CaCl2 diluted in dH2O) and incubated in the dark for 30 min on ice in Annexin V-containing binding buffer [1:100]. Cells were then washed once in binding buffer and then re-suspended in PI-containing binding buffer [1:1000]. Samples were analysed immediately using the BD accuri flow cytometer and prism software for analysis the data. Four populations are produced during the assay Annexin V and PI negative (Q4, healthy cells), Annexin V positive and PI negative (Q3, early apoptosis), Annexin V and PI positive (Q2, late apoptosis) and Annexin V negative and PI positive (Q1, necrosis).

The test system of test [5] is HCT-116 human colon cancer cell line. The test can be described thus: MTT viability assay, HCT-116. Conditions: Homo sapiens, HCT-116, 72 h, mean ± SD of three independent experiments, read-out: Antiproliferative Activities IC50, HCT-116. Type of test: cell-based. The method, then: as §1, §2
The subject of test [6] is HUVEC human umbilical vein endothelial cell line. The experiment in a line: MTT viability assay, normal HUVEC cells. Conditions: 72 h, mean ± SD of three independent experiments. Format: cell-based. How it is done:
as §1, §2

Test [7] has as its system colchicine binding site of tubulin. The test can be described thus: Colchicine site competitive binding assay ([3H]colchicine). Conditions: tubulin and colchicine at 1 and 5 µM. The method, then:
The affinity of Benzotriazole compounds to colchicine binding site was determined using a Colchicine Site Competitive Assay kit CytoDYNAMIX Screen15 (Cytoskeleton, Inc., Denver, CO, USA) using the standard protocol of the manufacturer to determine Ki values (μM). Biotin-labelled tubulin ([…]) and the test compounds (positive control colchicine, negative control vinblastine, G-1, fluorescent G-1, or 2-ME) in a 96-well plate (final volume: 100 μL). After incubating for 2 h at 37 °C with gentle shaking, streptavidin-labelled yttrium SPA beads (80 μg in 20 μL reaction buffer, PerkinElmer, Waltham, MA) were added to each well and incubated for 30 min at 4 °C. The plates were then read on a scintillation counter (Packard Instrument, Topcount Microplate Reader) and the percentage of inhibition was calculated.

As for `COc1ccc(/C=C\c2cc(OC)c(OC)c(OC)c2)cc1O` [CA-4, Combretastatin A-4, reference compound], the IC50 was […] with bovine brain tubulin; […] in test [1]; 770 ± 50 nM in test [2]; 240 ± 20 nM in test [5]; 13600 ± 650 nM in test [6]. Moreover, the “Proportion of HL-60 cells in G2/M phase” value was determined as 40.1% with HL-60 cells [3] (48 h) and 46.6% in the test with HL-60 cells [3] (72 h). Also, the “Total fraction of early and late apoptotic cells (Annexin V positive)” value in the test with HL-60 cells [4] (48 h) amounted to 18.7%. The “Average fraction of Annexin V-staining positive cells (total apoptotic cells)” value in the test on HL-60 cells [4] (72 h) was determined as 23.7%. Also, the “Colchicine Binding % ± SD (inhibition of [3H]colchicine binding), 1 µM Drug” value in test [7] (1 µM drug) is 64% and 64.23 ± 0.9%. For the same compound, the “Colchicine Binding % ± SD (inhibition of [3H]colchicine binding), 5 µM Drug” value in test [7] (5 µM drug) was 85% and 85.63 ± 2%.
